3 compounds from patent US11234960B2, “Compositions and methods for improving mitochondrial function and treating neurodegenerative diseases and cognitive disorders” (Amazentis SA, priority 2010, dated 2022) can be followed below.

The subject of test [1] is PC-12 cells. The test is described as follows: Neurite outgrowth in NGF-differentiated PC-12 cells. The settings on record: 0.5 μM. Type of test: cell-based, rat. The protocol:
The ellagitannins and their metabolites tested in the assays were synthesized or purchased from suppliers which included Funakoshi, Sigma, and Chemos. Stock solutions were aliquoted and stored at −20° C.
PC-12 cells (ATCC CRL-1721) were cultured at 37° C., 5% CO2 in poly L-lysine-coated culture flasks in complete culture medium (RPMI 1640+10% heat-inactivated horse serum+5% fetal bovine serum).
Cell differentiation was performed in culture flasks 24 h after plating, in complete medium supplemented with 100 ng/mL NGF (2.5 S NGF, Invitrogen). The NGF-supplemented medium was renewed every third day, and differentiation was induced over an 8-day period.
All compounds to be tested were prepared just before the experiment as a 50 mM stock solution in dimethylsulfoxide (DMSO). The final DMSO concentration was 0.1% in the medium of all experimental groups.
For neurite outgrowth measurements, differentiated cells were washed with phosphate-buffered saline (PBS), collected after detachment and replated at a density of 5,000 cells/well (biocoat imaging 96 well plate) in complete medium supplemented with 100 ng/mL NGF, with or without 10 μM SP600125 (negative control), 1 mM dbcAMP (positive control), or tested compound at 5×10^−7 M. In the undifferentiated control group, no NGF was added after replating.
After 72 h in culture, PC-12 cells were washed with PBS and fixed in 1% paraformaldehyde solution for 20 minutes. After 3 washes with PBS, immunofluorescence labeling was performed with Texas Red Maleimide probe, which reacts with thiol groups of cysteine residues of proteins, permitting the visualization of the entire cell morphology, including neurites.
Immunofluorescence analysis was performed in automated confocal microscopy. Images were acquired with a BD pathway 855 system, under X20 objective with 8×8 field montage. Neurite outgrowth was then measured from acquired images with the neurite module of Metamorph® software. Total and mean outgrowth, total and mean number of processes per cell, and total and percentage of cells with extensive outgrowth (defined as outgrowth longer than 20 μm) were analyzed.

The test system of test [2] is primary dopaminergic tyrosine hydroxylase (TH)-positive neurons. The test is described as follows: Neurite outgrowth in primary dopaminergic TH-positive neurons. The settings on record: 72 h; compounds 0.1 μM, SP600125 10 μM, dbcAMP 1 mM (FIG. 14). Type of test: cell-based, rat. The protocol: Primary mesencephalic cultures were prepared from rat E14 embryos. Ventral mesencephalon was carefully dissected and dissociated. Cells were then plated in DMEM F12 medium containing 10% heat inactivated horse serum at the density of 100,000 cells/well (96-well plate), with or without the JNK-specific inhibitor SP600125 (10 μM) (which served as a negative control) or dbcAMP (1 mM) (which served as a positive control), or the compounds tested each at the doses of 0.1 μM.
72 h after plating, the effects on the neurite outgrowth of dopaminergic tyrosine hydroxylase (TH)-positive neurons were measured from images acquired by automated confocal microscopy (X4 objective, montage 4×4) and covering the entire well surface, and quantified using the Neurite outgrowth module of Metamorph® software. Several representative parameters of neurite outgrowth were thus generated: total and mean outgrowth, total and mean number of processes per cell, and total and percentage of cells with extensive outgrowth (defined as outgrowth longer than 20 μm) were analyzed. All experiments were performed in quadruplicate.

Consider `O=C1OC[C@H]2OC(O)[C@H](O)[C@@H](O)[C@@H]2OC(=O)c2cc(O)c(O)c(O)c2-c2c(O)c(O)c3oc(=O)c4c(c(O)c(O)c5oc(=O)c2c3c54)-c2c1cc(O)c(O)c2O` (mixture of isomers) [punicalin], for which the “percent of cells showing significant outgrowth (>20 μm), increase vs differentiated cells” value in test [1] (72 h (FIG. 8)) was 26%. Further, in test [1] (72 h, differentiated PC-12 cells), the “number of processes (in words)” value is “induced an increase in the number of processes”.

On to `Oc1c2ccccc2c2c3c(cccc13)N=N2` [SP600125], for which the increase in branching in test [2] amounted to 60%.

Take `CCCC(=O)Nc1ncnc2c1ncn2[C@@H]1O[C@@H]2COP(=O)(O)O[C@H]2[C@H]1OC(=O)CCC` [dbcAMP, dibutyryl cyclic AMP]: the increase in branching in test [2] stood at 86%.
